Measured values taken from PubChem BioAssay (NCI).
Where “and” joins values, the source holds several entries; their conditions need not be identical. Identical values can stand only once.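 All cell lines were grown in 96-well plates and treated with compound for 48 hours. Abbreviation: GI50, concentration required for 50% inhibition of growth. TGI is the concentration that stops growth completely.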

Legend:
Experiment in all cases: inhibition of tumour cell growth, NCI panel, 48 h
M19-MEL melanoma = tested on: M19-MEL melanoma
DLD-1 colon = tested on: DLD-1 colon
KM20L2 colon = tested on: KM20L2 colon
LXFL 529 NSCLC = tested on: LXFL 529 NSCLC
T-47D breast = tested on: T-47D breast
PC-3 prostate = tested on: PC-3 prostate
NCI/ADR-RES ovarian = tested on: NCI/ADR-RES ovarian
MDA-MB-435 = tested on: MDA-MB-435
MDA-MB-231 breast = tested on: MDA-MB-231 breast
SNB-78 CNS = tested on: SNB-78 CNS

Structure (SMILES)	TGI (M19-MEL melanoma)	TGI (DLD-1 colon)	TGI (KM20L2 colon)	TGI (LXFL 529 NSCLC)	GI50 (M19-MEL melanoma)	GI50 (T-47D breast)	TGI (T-47D breast)	GI50 (PC-3 prostate)	TGI (PC-3 prostate)	GI50 (NCI/ADR-RES ovarian)	TGI (NCI/ADR-RES ovarian)	GI50 (MDA-MB-435)	TGI (MDA-MB-435)	GI50 (DLD-1 colon)	GI50 (KM20L2 colon)	GI50 (LXFL 529 NSCLC)	GI50 (MDA-MB-231 breast)	TGI (MDA-MB-231 breast)	TGI (SNB-78 CNS)
CN(C)CCNC(=O)c1cccc2nc3c(Cl)cccc3nc12	13.1 µM	42.2 µM	32.2 µM	> 49.5 µM	–	–	–	–	–	–	–	–	–	–	–	–	–	–	–
O=C(O)CCCc1ccc(N(CCCl)CCCl)cc1	51.8 µM and 238 µM	54.8 µM and 280 µM	60.9 µM and 379 µM	35.4 µM and 199 µM	22.3 µM	27.3 µM	333 µM and 292 µM	210 µM	416 µM and 609 µM	39.4 µM	329 µM and 118 µM	173 µM	270 µM and 242 µM	24.3 µM	27.8 µM	19.5 µM	265 µM	334 µM and 606 µM	–
O=C(/C=C(\[O-])c1ccccc1)CCCCCCC(=O)/C=C(\[O-])c1ccccc1.O=C(/C=C(\[O-])c1ccccc1)CCCCCCC(=O)/C=C(\[O-])c1ccccc1.O=C(/C=C(\[O-])c1ccccc1)CCCCCCC(=O)/C=C(\[O-])c1ccccc1.[La+3].[La+3]	–	–	> 50 µM	–	–	–	–	–	–	–	–	–	–	–	> 50 µM	–	–	–	–
CCOC(=O)c1cc(-c2ccc([N+](=O)[O-])cc2)n(-c2ccc(C(=O)O)c(O)c2)c1C	–	–	–	–	–	2.81 µM	11.4 µM	2.96 µM	18.8 µM	3.8 µM	38.6 µM	3.62 µM	14.6 µM	–	–	–	10.3 µM	29.9 µM	–
CN(C)CCNc1nc2ccccc2c2[nH]c3ccccc3c12	–	–	–	–	–	15.8 µM	92.2 µM	0.574 µM	2.8 µM	1.02 µM	7.86 µM	0.42 µM	1.71 µM	–	–	–	1.22 µM	3.99 µM	–
O=c1[nH]c(=O)n(C2CC(O)C(CO)O2)cc1C#Cc1c(F)c(F)c(F)c(F)c1F (centres undefined)	> 100 µM	> 100 µM	> 100 µM	> 100 µM	–	–	–	–	–	–	–	–	–	–	–	–	–	–	–
COc1cc2c(cc1O)[C@H](Cc1ccc(Oc3cc(C[C@H]4c5cc(OC)c(OC)cc5CCN4C)ccc3OC)cc1)NCC2	49.2 µM	–	22.7 µM	28.2 µM	–	–	–	–	–	–	–	–	–	–	–	–	–	–	–
O=C(O)/C=C/C(=O)Nc1ncn[nH]1	–	–	–	–	–	–	> 100 µM	–	> 100 µM	–	> 100 µM	–	> 100 µM	–	–	–	–	> 100 µM	–
N#Cc1nc(-c2ccc(F)cc2)oc1S(=O)(=O)N1CCOCC1	–	–	–	–	–	2.11 µM	5.23 µM	11.6 µM	26.9 µM	13.4 µM	47.2 µM	2.38 µM	6.9 µM	–	–	–	2.86 µM	8.64 µM	–
O=C1CCC(NC(=O)c2ccccc2)C(=O)N1 (centres undefined)	–	–	–	–	–	–	> 100 µM	–	> 100 µM	–	> 100 µM	–	> 100 µM	–	–	–	–	> 100 µM	–
CCCNC(=O)OCc1c(COC(=O)NCCC)c(-c2ccc(Cl)c(Cl)c2)n2c1CCC2	–	–	–	–	–	–	> 100 µM	–	28.4 µM	–	17.4 µM	–	29.8 µM	–	–	–	–	21.9 µM	–
COc1ccc(CN2CCCC(C(=O)c3ccc(C(F)(F)F)cc3)C2)c(O)c1 (centres undefined)	–	–	–	–	–	22.1 µM	80.1 µM	26.3 µM	> 100 µM	26.7 µM	> 100 µM	23.4 µM	83.3 µM	–	–	–	13.6 µM	32 µM	–
S=C1NCCN1C1=Nc2ccccc2CO1	–	–	–	–	–	73.5 µM	> 100 µM	> 100 µM	> 100 µM	> 100 µM	> 100 µM	> 100 µM	> 100 µM	–	–	–	> 100 µM	> 100 µM	–
CCOC(=O)CCCO	–	> 100 µM	> 100 µM	> 100 µM	–	–	–	–	–	–	–	–	–	–	–	–	–	–	–
OCc1c(-c2cccc3ccccc23)sc(-c2cccc3ccccc23)c1CO	29.4 µM	–	24.6 µM	27.6 µM	–	–	–	–	–	–	–	–	–	–	–	–	–	–	31.5 µM
CN(C)S(=O)(=O)Nc1ccccn1	–	–	–	–	–	–	–	–	> 100 µM	–	> 100 µM	–	> 100 µM	–	–	–	–	> 100 µM	–
N#Cc1cnn2ccn(C3OC(COC(=O)c4ccccc4)C(OC(=O)c4ccccc4)C3OC(=O)c3ccccc3)c12 (centres undefined)	–	–	–	–	–	–	21.5 µM	–	21.5 µM	–	> 21.5 µM	–	> 21.5 µM	–	–	–	–	> 21.5 µM	–
COc1cc2c(c(OC)c1OC)-c1ccc(NCc3ccccc3)c(=O)cc1[C@@H](NC(C)=O)CC2	–	–	–	–	–	0.589 µM	41.5 µM	0.406 µM	43.7 µM	18.7 µM	> 100 µM	0.187 µM	0.486 µM	–	–	–	0.461 µM	11.7 µM	–
O=C1CSC(N2CCN(c3cccc(Cl)c3)CC2)=N1	–	–	–	–	–	> 100 µM	> 100 µM	> 100 µM	> 100 µM	> 100 µM	> 100 µM	> 100 µM	> 100 µM	–	–	–	> 100 µM	> 100 µM	–
COC(=O)C(CC(=O)c1cc2c(cc1I)OCO2)Cc1cc(OC)c(OC)c(OC)c1I (centres undefined)	> 100 µM	> 100 µM	> 100 µM	> 100 µM	–	–	–	–	–	–	–	–	–	–	–	–	–	–	–
CN(C)c1ccc2c(c1)oc(=O)c1ccccc12	–	–	–	–	–	–	28.4 µM	–	30.5 µM	–	44.9 µM	–	23.1 µM	–	–	–	–	34.4 µM	–
Cc1c(N2C(=O)/C(=C\c3ccccc3O)N=C2c2ccccc2)c(=O)n(-c2ccccc2)n1C	–	–	–	–	–	16.3 µM	> 100 µM	> 100 µM	> 100 µM	76.3 µM	> 100 µM	54 µM	> 100 µM	–	–	–	41.9 µM	> 100 µM	–
Cn1c(-c2nonc2N)nc2cnccc21	–	–	–	–	–	> 25 µM	> 25 µM	> 25 µM	> 25 µM	> 25 µM	> 25 µM	> 25 µM	> 25 µM	–	–	–	> 25 µM	> 25 µM	–
COC(=O)c1c2c(c(C)[n+]([O-])c1C)C(=O)C=CC2=O	–	–	–	–	–	1.97 µM	7.26 µM	–	–	2.33 µM	7.78 µM	1.79 µM	3.31 µM	–	–	–	2.68 µM	8.28 µM	–
O=C1c2ccccc2-c2c1c1cc3c(cc1c(=O)n2CCCCl)OCO3	–	–	–	–	–	> 100 µM	> 100 µM	42.7 µM	> 100 µM	24.9 µM	> 100 µM	29.4 µM	> 100 µM	–	–	–	24.7 µM	75.3 µM	–
COc1cccc(-c2nn(-c3ccccc3)cc2-c2ccnc(NCCCNS(=O)(=O)c3cccc(F)c3)c2)c1	–	–	–	–	–	1.54 µM	5.27 µM	2.97 µM	> 100 µM	3.05 µM	> 100 µM	3.68 µM	58.8 µM	–	–	–	3.43 µM	> 100 µM	–
